Test [1] has as its system DU145 (prostate carcinoma). Kind of test: In vitro growth inhibition screen (sulphorhodamine B), DU145. Particulars: DU145 cells, incubated for 48 hours, sulphorhodamine B dye; read-out: GI50 (concentration which inhibits the cell growth by 50%), DU145 Prostate carcinoma. Format: cell-based, human. Summed up: (§1)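 GI50 (50% growth inhibition) from sulphorhodamine B staining of TCA-fixed cells, OD 490. Compounds at ten-fold dilutions from ≧100 μM down to 10 nM were added a day after plating and left 48 h; culture in RPMI 1640 with 10% FCS, 37 °C, 5% CO2.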

Test [2] concerns HT29 (colorectal adenocarcinoma). Kind of test: In vitro growth inhibition screen (sulphorhodamine B), HT29. Format: cell-based, human. Particulars: HT29 cells, incubated for 48 hours, sulphorhodamine B dye; read-out: GI50 (concentration which inhibits the cell growth by 50%), HT29 Colorectal adenocarcinoma. The gist of the method:
as §1

For test [3], the system named is LOX (melanoma). Kind of test: In vitro growth inhibition screen (sulphorhodamine B), LOX. Format: cell-based, human. Particulars: LOX cells, incubated for 48 hours, sulphorhodamine B dye; read-out: GI50 (concentration which inhibits the cell growth by 50%), LOX Melanoma. The gist of the method: as §1
Test [4] concerns MCF7 (breast adenocarcinoma). The test can be described thus: In vitro growth inhibition screen (sulphorhodamine B), MCF7. Type of test: cell-based, human. To be noted: MCF7 cells, incubated for 48 hours, sulphorhodamine B dye; read-out: GI50 (concentration which inhibits the cell growth by 50%), MCF7 Breast adenocarcinoma. Summed up:
as §1

For test [5], the system named is MCF7ADR (adriamycin resistant breast adenocarcinoma). The test can be described thus: In vitro growth inhibition screen (sulphorhodamine B), MCF7ADR. Type of test: cell-based, human. Particulars: MCF7ADR cells, incubated for 48 hours, sulphorhodamine B dye; read-out: GI50 (concentration which inhibits the cell growth by 50%), MCF7ADR Adriamycin Resistant Breast adenocarcinoma. Summed up: as §1

The subject of test [6] is U251 (human glioblastoma). Kind of test: In vitro growth inhibition screen (sulphorhodamine B), U251. Format: cell-based. To be noted: U251 cells, incubated for 48 hours, sulphorhodamine B dye; read-out: GI50 (concentration which inhibits the cell growth by 50%), U251 Human glioblastoma astrocytoma. The gist of the method: as §1

Where only a bound is given, the exact number is not on record here.

For `CCCN1C(=O)[C@H](OCc2ccccc2)[C@@H](OCc2ccccc2)[C@H](OCc2ccccc2)[C@H]1CNC(=O)C12CC3CC(CC(C3)C1)C2` [Compound No. 48, 2,3,4-Tri-O-benzyl-6-(adamantanecarboxamido}-N-propyl-D-gluco-δ-lactam], the GI50 in test [1] turned out to be 104 µM; in test [2], 67.9 µM; in test [3], 31.8 µM; in test [4], 18.8 µM; in test [5] it was 58.4 µM; in test [6] it was 12.9 µM.
For `CCCN1C(=O)[C@H](O)[C@@H](O)[C@H](O)[C@H]1CNC(=O)Nc1ccc(F)cc1F` [Compound No. 49, 6-N-{[2,4Difluorophenyl]aminocarbonylamino}-N-propyl-D-gluco-δ-lactam], the GI50 was 352 µM in test [1]; 131 µM in test [2]; 133 µM in test [3]; 177 µM in test [4]; 251 µM in test [5]; 122 µM in test [6].
As for `CCCN1C(=O)[C@H](O)[C@@H](O)[C@H](O)[C@H]1CNC(=O)C12CC3CC(CC(C3)C1)C2` [Compound No. 50, 6-(Adamantanecarboxamido)-N-propyl-D-gluco-δ-lactam], the GI50 in test [1] was 108 µM; in test [2] it was 38.1 µM; in test [3] it was 97.2 µM; in test [4], 82.8 µM; in test [5], 138 µM; in test [6] it was 144 µM.
Consider `CCCN1C(=O)[C@H](OCc2ccccc2)[C@@H](OCc2ccccc2)[C@H](OCc2ccccc2)[C@H]1CNC(=O)CCl` [Compound No. 52, 2,3,4-Tri-O-benzyl-6-N-{2-[chloro]-acetyl}-N-propyl-D-gluco-δ-lactam], for which the GI50 was 7.2 µM in test [1]; 6.8 µM in test [2]; 0.9 µM in test [3]; 6 µM in test [4]; 0.8 µM in test [5]; 2.9 µM in test [6].
For `CCCN1C(=O)[C@H](OCc2ccccc2)[C@@H](OCc2ccccc2)[C@H](OCc2ccccc2)[C@H]1CNC(=O)Cn1cncn1` [Compound No. 53, 2,3,4-Tri-O-benzyl-N-propyl-6-{2-[triazolyl]-acetyl}-D-gluco-δ-lactam], the GI50 in test [1] is 8.8 µM; in test [2] it was 9.3 µM; in test [3] it was 8.3 µM; in test [4], 6.6 µM; in test [5], 10 µM; in test [6], 12.9 µM.
As to `CCCN1C(=O)[C@H](OCc2ccccc2)[C@@H](OCc2ccccc2)[C@H](OCc2ccccc2)[C@H]1CNC(=O)CN1CCN(c2ncccn2)CC1` [Compound No. 54, 2,3,4-Tri-O-benzyl-6-N-{2-[4-(pyrimidyl)piperazinyl]acetyl}-N-propyl-D-gluco-δ-lactam], the GI50 was determined as 5 µM in test [1]; 3.6 µM in test [2]; 2.3 µM in test [3]; 4.1 µM in test [4]; 6.6 µM in test [5]; 3.2 µM in test [6].
With `CCCN1C(=O)[C@H](OCc2ccccc2)[C@@H](OCc2ccccc2)[C@H](OCc2ccccc2)[C@H]1CNC(=O)CNc1ccc(F)cc1` [Compound No. 55, 2,3,4-Tri-O-benzyl-6-N-{2-[4-fluoroanilino]acetyl}-N-propyl-D-gluco-δ-lactam], the GI50 in test [1] is 4.1 µM; in test [2], 4.7 µM; in test [3] it was 3.3 µM; in test [4], 8.2 µM; in test [5], 10.2 µM; in test [6] it was 4.1 µM.
`CCCN1C(=O)[C@H](OCc2ccccc2)[C@@H](OCc2ccccc2)[C@H](OCc2ccccc2)[C@H]1COC(=O)CN1C(=O)CCCC1=O` [Compound No. 56, 2,3,4-Tri-O-benzyl-6-{2-[2,6-diketopiperidino]acetyl}-N-propyl-D-gluco-δ-lactam]: the GI50 in test [1] is 10.7 µM; in test [2], 22.8 µM; in test [3] it was 12 µM; in test [4], 40.3 µM; in test [5] it was 24.5 µM; in test [6] it was 40.5 µM.
On to `CCCN1C(=O)[C@H](OCc2ccccc2)[C@@H](OCc2ccccc2)[C@H](OCc2ccccc2)[C@H]1CNC(=O)Cn1ncn(-c2ccc(Cl)cc2)c1=O` [Compound No. 57, 2,3,4-Tri-O-benzyl-6-N-{2-[4-chlorophenyl-3-(2H,4H)-1,2,4-triazol-3-onyl]acetyl}-N-propyl-D-gluco-δ-lactam], for which the GI50 in test [1] came out at 64.4 µM; in test [2] it was 22.7 µM; in test [3] it was 25.1 µM; in test [4], 20.1 µM; in test [5], 247 µM; in test [6], 154 µM.
For `CCCN1C(=O)[C@H](OCc2ccccc2)[C@@H](OCc2ccccc2)[C@H](OCc2ccccc2)[C@H]1CNC(=O)CN1CCN(c2ccc(F)cc2)CC1` [Compound No. 58, 2,3,4-Tri-O-benzyl-6-N-{2-[4-(4-fluorophenyl)-piperazin-1-yl]acetyl}-N-propyl-D-gluco-δ-lactam], the GI50 turned out to be 19.4 µM in test [1]; 7.9 µM in test [2]; 2.8 µM in test [3]; 8.2 µM in test [4]; 10.2 µM in test [5]; 13.4 µM in test [6].
Regarding `CCCN1C(=O)C(OCc2ccccc2)C(OCc2ccccc2)C(OCc2ccccc2)C1CNC(=O)CN1CCN(C)CC1` [Compound No. 59, 2,3,4-Tri-O-benzyl-6-N-{2-[N-(methyl)piperazin-1-yl]acetyl}-N-propyl-D-gluco-δ-lactam], the GI50 in test [1] amounted to 12.2 µM; in test [2], 1.9 µM; in test [3], 3.8 µM; in test [4] it was 8.1 µM; in test [5], 25.3 µM; in test [6], 12.6 µM.
Turning to `CCCN1C(=O)[C@H](OCc2ccccc2)[C@@H](OCc2ccccc2)[C@H](OCc2ccccc2)[C@H]1CNC(=O)Cn1ncn(-c2ccc(N3CCN(c4ccc(Cl)cc4)CC3)cc2)c1=O` [Compound No. 60, 2,3,4-Tri-O-benzyl-6-N-{2-[(4-(4-(chlorophenyl)-piperazin-1-yl)-phenyl)-3(2H,4H)-1,2,4-triazol-3-onyl]acetyl}-H-propyl-D-gluco-δ-lactam], the GI50 in test [1] stood at 108 µM; in test [2] it was 258 µM; in test [3], 158 µM; in test [4], 101 µM; in test [5] it was 281 µM; in test [6], 190 µM.
As to `CCCN1C(=O)[C@H](OCc2ccccc2)[C@@H](OCc2ccccc2)[C@H](OCc2ccccc2)[C@H]1CNC(=O)CN1C[C@H](OCc2ccccc2)[C@@H](OCc2ccccc2)[C@H](OCc2ccccc2)[C@H]1COCc1ccccc1` [Compound No. 61, 2,3,4-Tri-O-benzyl-6-N-{2-[2,3,4,6-tetra-O-benzyl-1,5-dideoxy-1,5-imino-glucitolyl]acetyl}-N-propyl-D-gluco-δ-lactam], the GI50 in test [1] was 195 µM; in test [2] it was above 618 µM; in test [3], above 618 µM; in test [4] it was above 618 µM; in test [5], above 618 µM; in test [6], above 618 µM.
For `CCCN1C(=O)[C@H](OCc2ccccc2)[C@@H](OCc2ccccc2)[C@H](OCc2ccccc2)[C@H]1CNC(=O)CN1CCN(c2c(CC)cccc2CC)CC1` [Compound No. 62, 2,3,4-Tri-O-benzyl-6-N-{2-[N-(2,6-diethylphenyl)piperazinyl]acetyl}-N-propyl-D-gluco-δ-lactam], the GI50 in test [1] is 24.3 µM; in test [2], 24.9 µM; in test [3], 37.7 µM; in test [4], above 402 µM; in test [5] it was above 402 µM; in test [6], 30 µM.
For `CCCN1C(=O)[C@H](OCc2ccccc2)[C@@H](OCc2ccccc2)[C@H](OCc2ccccc2)[C@H]1CNC(=O)CN1C(=O)c2ccccc2C1=O` [Compound No. 63], the GI50 in test [1] was 60.6 µM; in test [2] it was 42 µM; in test [3], 55.3 µM; in test [4] it was 66.8 µM; in test [5], 246 µM; in test [6] it was 117 µM.
Regarding `CCCN1C(=O)[C@H](OCc2ccccc2)[C@@H](OCc2ccccc2)[C@H](OCc2ccccc2)[C@H]1CNC(=O)CN1CCN(c2ccc(Cl)cc2)CC1` [Compound No. 64, 2,3,4-Tri-O-benzyl-6-N-{2-[4-(4-chlorophenyl)piperazinyl]acetyl}-N-propyl-D-gluco-δ-lactam], the GI50 worked out at 12.5 µM in test [1]; 8.1 µM in test [2]; 6.3 µM in test [3]; 1.5 µM in test [4]; 4.3 µM in test [5]; 3.7 µM in test [6].
For `CCCN1C(=O)[C@H](OCc2ccccc2)[C@@H](OCc2ccccc2)[C@H](OCc2ccccc2)[C@H]1CNC(=O)CN1CCN(c2cccc(C(F)(F)F)c2)CC1` [Compound No. 65, 2,3,4-Tri-O-benzyl-6-N-{2-[4-(3-(trifluoromethyl)phenyl)piperazin-1-yl]acetyl}-N-propyl-D-gluco-δ-lactam], the GI50 in test [1] stood at 13.1 µM; in test [2], 5.6 µM; in test [3], 4 µM; in test [4], 2 µM; in test [5], 3.5 µM; in test [6], 3.4 µM.

For the origin of these results see patent publication US20060241114A1, “Derivatives of azasugars as anticancer agents” (priority 2003, published 2006).
